Patent US6579718B1, “Carbazolylvinyl dye protein stains” (Molecular Probes, Inc., priority 2000, dated 2003)
Where “and” joins values, the source holds several entries; their conditions need not be identical. Equal values may be shown once.

Columns and labels:
[1] = Fluorescence excitation/emission spectra in 2% SDS at acidic and neutral pH (Example 20, FIG. 1); format: physicochemical; settings: 2% SDS in 7% acetic acid or phosphate-buffered saline
Protocol: FIG. 1: Fluorescence excitation/emission spectra of Compound 9. Spectra were generated in 7% acetic acid, 2% SDS. […] Identical spectra were obtained in phosphate-buffered saline, 2% sodium dodecyl sulfate (SDS).
Excitation/emission profiles of Compound 9 are obtained by incubating a […] solution of the dye in 2% SDS that has been prepared in either 7% acetic acid or 50 mM Na2HPO4, 150 mM NaCl, pH 7.0 for 30 minutes. Without the SDS, the dye gives very low fluorescence emission in aqueous solutions or buffers. Measurements are made in a quartz cuvette using a Hitachi F4500 fluorescence Spectrometer (Hitachi, Tokyo, Japan) or similar instrument. Spectra generated in 7% acetic acid, 2% SDS can be essentially superimposed on spectra obtained in phosphate-buffered saline, 2% SDS. Excitation maxima are observed at 300 and 490 nm with emission set at 640 nm. An emission maximum is observed at 640 nm with excitation set at 440 nm. This excitation profile is ideally suited for visualization of the stain using a 302-nm UV-B transilluminator, 473-nm second harmonic generation (SHG) laser or 488-nm argon-ion laser. The dye can also be visualized on a blue-light box (DARK READER™, Clare Research, Boulder, Colo.). The emission maximum of the Compound 9 is observed at 640 nm, and is thus spectrally well matched to emission band-pass filters optimized for the Texas Red dye.

[2] = tested on: broad-range protein molecular weight markers; assay: Staining of broad-range molecular weight protein standards in SDS-polyacrylamide gels (Example 22, FIG. 2, 3)
Protocol: (§1) FIG. 2: Intensity profile comparison after staining broad-range protein molecular weight markers with SYPRO Orange dye in 7% acetic acid and phosohate-buffered saline. FIG. 2A.) Profile obtained with SYPRO Orange dye in 7% acetic acid. FIG. 2B.) Profile obtained with SYPRO Orange dye in 50 mM sodium phosphate, 150 mM sodium chloride, pH 7.0. Grey scale values of the fluorescence signals were inverted prior to obtaining the traces to facilitate evaluation of the peaks.
as §1, with “3:” for “2:”, “Compound 9” for “SYPRO Orange dye”, “phosphate-buffered” for “phosohate-buffered”, “3A.)” for “2A.)”, “3B.)” for “2B.)”
SDS-polyacrylamide gel electrophoresis is performed by standard methods utilizing 4% T, 2.6% C stacking gels, pH 6.8 and 15% T, 2.6% C separating gels, pH 8.8. % T is the total monomer concentration expressed in grams per 100 mL and % C is the percentage crosslinker. A staining solution of Compound 9 is prepared by diluting a stock solution that 5 is […] dye in DMSO in either 7.5% acetic acid or 50 mM Na2HPO4, 150 mM NaCl, pH 7.0 with vigorous mixing. Alternatively, a wide range of buffers are compatible with staining, including but not limited to formate, pH 4.0; citrate, pH 4.5; acetate, pH 5.0; MES, pH 6.0;
imidazole, pH 7.0; HEPES, pH 7.5; Tris acetate, pH 8.0; Tris-HCl, pH 8.5; Tris borate, 20 mM EDTA, pH 9.0; and bicarbonate, pH 10.0. Buffers should be prepared as 50-100 mM 10 solutions containing about 150 mM NaCl. Approximately 50-75 mL of staining solution is used for a typical mini-gel (5 cm×9 cm×1 mm). The gel is placed into the staining solution and the container is covered with aluminum foil to protect the dye from bright light. The gel is gently agitated for at least 30 minutes at room temperature using an orbital shaker (50:RPM). After staining, the gel is briefly dipped in water and visualized on a UV light box. […] As little as 1 ng of protein may be visualized when the fluorescent image is recorded by photography using a cellophane 490-nm long pass filter. […] In the latter buffer, protein bands are barely detectable above background fluorescence with these latter dyes.

[3] = tested on: tubulin; assay: Electroblotting of tubulin from stained gels (Example 24); settings: phosphate-buffered saline staining formulation
Protocol: Tubulin was selected as a model protein since it is relatively difficult to elute from gels by simple passive diffusion (Example 23). Two-fold serial dilutions of […] ranging from 1000 to 1 ng are applied and separated by sodium dodecyl sulfate (SDS)-polyacrylamide gel electrophoresis according to standard procedures. After electrophoresis, gels are stained with either Compound 9 or SYPRO Orange dye as described in Example 23, photographed and then incubated in a transfer buffer consisting of 10 mM Tris, 96 mM glycine, 10% methanol, 0.1% sodium dodecyl sulfate, pH 8.3. Proteins are electroblotted to poly(vinylidene difluoride) (PVDF) membranes using the same transfer buffer for 120 minutes using a semi-dry blotter by standard methods. Immunoblotting is performed by standard methods and colorimetric procedures are employed to detect the tubulin using 5-bromo-4-chloroindolyl phosphate/nitroblue tetrazolium (BCIP/NBT). […] Tubulin can subsequently be visualized by using alkaline phosphatase-conjugated secondary antibody with similar detection sensitivity as electroblots of unstained, control gels. The transfer of tubulin from gels stained with SYPRO Orange dye in 7% acetic acid is not possible despite a 20-minute incubation in transfer buffer containing 0.1% sodium dodecyl sulfate prior to blotting.

[4] = tested on: proteins; assay: Staining protein gels with dye in the running buffer (Example 30); settings: running buffer with 0.05% SDS and 1-3 μM dye
Protocol: The proteins of interest are prepared for loading on standard SDS gels, using standard methods. Dilution series of known molecular weight markers, or proteins of unknown concentration, or protein mixtures of unknown composition are used. The gels are loaded and run under standard conditions, excepting that the running buffer contains 0.05% SDS and 1-3 μM Compound 9. The stained gels are either photographed directly after electrophoresis or are destained in 7.5% acetic acid or phosphate-buffered saline for 20-50 minutes to remove background staining prior to photography. […] In addition, the migration of protein bands can be monitored through the glass plates that support the gel, during electrophoresis. Such monitoring can either be calorimetric, since the stained protein bands are visually colored, or can be via fluorescence, if the excitation source is at visible wavelengths (such as a laser or mercury-arc lamp, for example).

Excitation maxima ([1]; emission set at 640 nm): 300 nm and 490 nm | Emission maximum ([1]; excitation set at 440 nm): 640 nm
SMILES: CCn1c2ccccc2c2cc(/C=C/c3cc[n+](CCCCS(=O)(=O)[O-])c4ccccc34)ccc21 [Compound 9]
Brightness of protein band staining ([2]; 7% acetic acid): as brightly as SYPRO Orange dye | Amount of protein that may be visualized (detection sensitivity) ([2]; SDS-polyacrylamide gel, photography with 490-nm long pass filter): 1 ng | Brightness of protein staining compared with SYPRO Orange dye ([2]; phosphate-buffered saline): much more brightly | Appearance of stained proteins on UV light box ([2]; regardless of the buffer): bright orange bands | Transfer of tubulin from stained gel by electroblotting [3]: readily transferred | Sensitivity compared with staining gels after electrophoresis [4]: about the same
